Assay results: ChEMBL document CHEMBL3431459, “Roche carnitine palmitoyltransferase modulator screening data (supplementary data associated with the publication CHEMBL2216752)”
pIC50: −log10 of the molar value. In brackets after ≈: the same amount, converted by molar mass.

Columns and labels:
[1] = biological target: T1, Carnitine O-palmitoyltransferase 2, mitochondrial (Homo sapiens, UniProt P23786); test: (§1) SUPPLEMENTARY: Inhibition of Carnitine palmitoyltransferase 2
T1 sequence (P23786 whole entry): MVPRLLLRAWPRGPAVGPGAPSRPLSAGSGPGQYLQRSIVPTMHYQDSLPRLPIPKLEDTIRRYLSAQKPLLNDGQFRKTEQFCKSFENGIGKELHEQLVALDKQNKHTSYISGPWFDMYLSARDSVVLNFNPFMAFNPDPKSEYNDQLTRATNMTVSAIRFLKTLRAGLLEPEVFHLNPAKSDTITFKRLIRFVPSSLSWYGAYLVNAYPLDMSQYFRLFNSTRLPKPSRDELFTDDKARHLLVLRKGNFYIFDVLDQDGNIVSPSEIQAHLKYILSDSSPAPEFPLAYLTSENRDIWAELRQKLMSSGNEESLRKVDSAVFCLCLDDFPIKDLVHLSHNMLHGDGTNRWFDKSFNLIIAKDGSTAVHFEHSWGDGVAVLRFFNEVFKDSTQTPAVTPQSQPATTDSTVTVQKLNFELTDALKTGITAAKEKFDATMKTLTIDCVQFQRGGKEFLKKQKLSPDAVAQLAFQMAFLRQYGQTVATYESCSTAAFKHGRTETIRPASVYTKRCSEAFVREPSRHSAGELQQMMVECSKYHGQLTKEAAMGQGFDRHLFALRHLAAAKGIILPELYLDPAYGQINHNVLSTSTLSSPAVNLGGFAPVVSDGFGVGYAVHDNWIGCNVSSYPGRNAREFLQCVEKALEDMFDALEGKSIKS

[2] = biological target: T2, Carnitine O-palmitoyltransferase 2, mitochondrial (Rattus norvegicus, UniProt P18886); test: as §1
T2 sequence (P18886 whole entry): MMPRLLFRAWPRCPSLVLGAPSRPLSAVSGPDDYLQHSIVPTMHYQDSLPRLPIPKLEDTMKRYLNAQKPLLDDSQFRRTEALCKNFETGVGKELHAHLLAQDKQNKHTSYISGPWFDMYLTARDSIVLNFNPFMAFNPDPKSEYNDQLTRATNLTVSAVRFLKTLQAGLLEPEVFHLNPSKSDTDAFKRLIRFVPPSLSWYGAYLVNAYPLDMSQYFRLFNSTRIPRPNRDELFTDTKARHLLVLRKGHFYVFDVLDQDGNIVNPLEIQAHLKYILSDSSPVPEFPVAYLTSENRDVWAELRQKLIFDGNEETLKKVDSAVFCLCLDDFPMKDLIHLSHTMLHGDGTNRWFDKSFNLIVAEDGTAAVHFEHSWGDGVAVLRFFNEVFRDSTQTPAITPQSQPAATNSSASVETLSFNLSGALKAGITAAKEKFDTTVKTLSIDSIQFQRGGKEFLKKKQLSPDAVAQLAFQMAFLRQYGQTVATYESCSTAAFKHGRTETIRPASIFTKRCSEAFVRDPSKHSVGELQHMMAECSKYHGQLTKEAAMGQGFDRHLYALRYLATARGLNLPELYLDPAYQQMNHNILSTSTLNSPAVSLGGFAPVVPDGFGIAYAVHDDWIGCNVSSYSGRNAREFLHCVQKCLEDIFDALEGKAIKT

[3] = biological target: T3, Carnitine O-palmitoyltransferase 1, liver isoform (Rattus norvegicus, UniProt P32198); test: (§2) SUPPLEMENTARY: Inhibition of Carnitine palmitoyltransferase 1, liver isoform
T3 sequence (P32198 whole entry): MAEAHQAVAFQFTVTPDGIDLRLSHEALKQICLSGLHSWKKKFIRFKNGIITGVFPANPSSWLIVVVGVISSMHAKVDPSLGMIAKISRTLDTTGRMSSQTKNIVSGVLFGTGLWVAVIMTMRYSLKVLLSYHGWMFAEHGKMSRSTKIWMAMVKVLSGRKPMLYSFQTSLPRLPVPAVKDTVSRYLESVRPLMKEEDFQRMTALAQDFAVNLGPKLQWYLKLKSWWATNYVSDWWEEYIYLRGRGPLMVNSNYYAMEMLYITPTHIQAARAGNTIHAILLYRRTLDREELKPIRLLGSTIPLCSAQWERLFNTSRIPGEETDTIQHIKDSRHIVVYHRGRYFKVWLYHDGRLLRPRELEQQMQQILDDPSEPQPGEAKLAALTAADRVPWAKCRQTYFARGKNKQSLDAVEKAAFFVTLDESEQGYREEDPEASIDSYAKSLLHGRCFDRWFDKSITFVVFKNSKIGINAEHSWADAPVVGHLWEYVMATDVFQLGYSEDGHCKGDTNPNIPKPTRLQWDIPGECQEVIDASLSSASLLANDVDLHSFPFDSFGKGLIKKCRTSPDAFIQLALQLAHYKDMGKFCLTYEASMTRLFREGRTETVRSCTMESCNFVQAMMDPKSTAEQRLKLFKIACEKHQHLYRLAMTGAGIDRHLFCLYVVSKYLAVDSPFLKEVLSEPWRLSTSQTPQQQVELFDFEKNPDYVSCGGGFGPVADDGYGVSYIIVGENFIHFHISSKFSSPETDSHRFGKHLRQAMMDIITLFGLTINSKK

[4] = biological target: T4, Carnitine O-palmitoyltransferase 1, liver isoform (Homo sapiens, UniProt P50416); test: as §2
T4 sequence (P50416 whole entry): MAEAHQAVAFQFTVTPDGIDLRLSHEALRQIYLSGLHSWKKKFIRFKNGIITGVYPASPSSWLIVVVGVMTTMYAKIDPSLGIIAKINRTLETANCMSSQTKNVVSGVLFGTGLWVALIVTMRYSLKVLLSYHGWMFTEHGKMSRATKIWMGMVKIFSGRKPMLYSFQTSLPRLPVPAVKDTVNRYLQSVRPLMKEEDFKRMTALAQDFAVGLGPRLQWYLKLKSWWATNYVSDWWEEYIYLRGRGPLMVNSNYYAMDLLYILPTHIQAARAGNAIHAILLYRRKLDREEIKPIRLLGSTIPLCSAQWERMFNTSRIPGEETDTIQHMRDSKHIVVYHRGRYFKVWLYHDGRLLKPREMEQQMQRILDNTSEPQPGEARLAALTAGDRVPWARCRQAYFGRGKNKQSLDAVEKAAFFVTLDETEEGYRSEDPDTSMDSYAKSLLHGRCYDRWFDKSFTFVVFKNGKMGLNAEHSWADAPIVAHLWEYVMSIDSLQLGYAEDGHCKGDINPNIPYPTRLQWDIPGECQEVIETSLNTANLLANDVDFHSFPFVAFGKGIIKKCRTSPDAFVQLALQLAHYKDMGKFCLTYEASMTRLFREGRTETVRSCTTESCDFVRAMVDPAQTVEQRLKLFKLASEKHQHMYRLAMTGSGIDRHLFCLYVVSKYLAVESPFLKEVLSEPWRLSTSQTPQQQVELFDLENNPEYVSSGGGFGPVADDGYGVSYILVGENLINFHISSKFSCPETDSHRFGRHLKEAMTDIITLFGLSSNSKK

[5] = SUPPLEMENTARY: PAMPA permeability assay; type: physicochemical; conditions: read-out: Permeability
[6] = SUPPLEMENTARY: Lipophilicity (log D) Determination by high-throughput shake-flask; type: physicochemical; conditions: octanol/water
[7] = SUPPLEMENTARY: Lyophilisation Solubility Assay (LYSA); type: physicochemical; conditions: read-out: Kinetic_solubility
[8] = biological target: T5, Carnitine O-palmitoyltransferase 1, muscle isoform (Homo sapiens, UniProt Q92523); test: SUPPLEMENTARY: Inhibition of Carnitine palmitoyltransferase 1, muscle isoform; design: species or system Muscle tissue
T5 sequence (Q92523 whole entry): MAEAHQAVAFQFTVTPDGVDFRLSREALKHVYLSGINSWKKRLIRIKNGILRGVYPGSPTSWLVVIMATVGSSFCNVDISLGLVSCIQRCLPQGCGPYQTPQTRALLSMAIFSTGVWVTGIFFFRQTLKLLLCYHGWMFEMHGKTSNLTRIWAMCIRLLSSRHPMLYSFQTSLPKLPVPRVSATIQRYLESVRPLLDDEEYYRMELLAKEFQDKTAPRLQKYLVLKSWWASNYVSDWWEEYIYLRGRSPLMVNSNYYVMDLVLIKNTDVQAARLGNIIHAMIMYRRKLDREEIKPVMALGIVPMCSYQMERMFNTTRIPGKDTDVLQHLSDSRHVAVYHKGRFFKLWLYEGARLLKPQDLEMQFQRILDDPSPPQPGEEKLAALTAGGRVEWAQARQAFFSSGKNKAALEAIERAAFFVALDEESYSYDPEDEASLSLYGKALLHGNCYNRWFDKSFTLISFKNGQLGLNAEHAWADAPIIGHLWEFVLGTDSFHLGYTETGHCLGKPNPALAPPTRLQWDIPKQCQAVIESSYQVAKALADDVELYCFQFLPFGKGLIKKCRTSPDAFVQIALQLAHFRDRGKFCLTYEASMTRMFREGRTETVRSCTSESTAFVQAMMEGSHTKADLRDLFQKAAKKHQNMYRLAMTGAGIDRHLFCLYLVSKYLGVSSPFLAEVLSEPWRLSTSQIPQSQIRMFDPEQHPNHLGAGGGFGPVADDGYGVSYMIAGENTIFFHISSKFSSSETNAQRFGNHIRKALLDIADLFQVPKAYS

Structure (SMILES) | pIC50 [1] | pIC50 [2] | pIC50 [3] | pIC50 [4] | Papp [5] [×10⁻⁶ cm/s] | logD [6] | solubility kinetic [7] [µg/mL] | pIC50 [8]
COc1ccc(Cl)cc1S(=O)(=O)N(C)c1cc(C(=O)Nc2ncc(CC(=O)O)s2)cc2c1OCO2 | < 4.00 | < 4.00 | 7.41 | 7.17 | 2.22 | -0.06 | 277 (≈ 513 µM) | 5.92
COc1ccc(Cl)cc1S(=O)(=O)N(C)c1cc(C(=O)Nc2ccn(CC(=O)O)n2)cc2c1OCO2 | < 4.00 | < 4.00 | 6.28 | 6.71 | 0.13 | -1.41 | > 566 | 5.37
COc1ccc(Cl)cc1S(=O)(=O)N1CCOc2c(Cl)cc(C(=O)Nc3nc(CC(=O)O)cs3)cc21 | < 4.00 | < 4.00 | 7.27 | 7.30 | 2.6 | 2.28 | 12 (≈ 21.5 µM) | 5.93
COc1ccc(Cl)cc1S(=O)(=O)N1CCOc2c(Cl)cc(C(=O)Nc3ccc(CC(=O)O)cc3)cc21 | 4.11 | < 4.00 | 7.00 | 6.91 | 3.23 | 0.88 | 44 (≈ 79.8 µM) | 5.96
CCN(c1cc(C(=O)Nc2nc(CC(=O)O)cs2)cc2c1OCO2)S(=O)(=O)c1cc(Cl)ccc1OC | < 4.00 | < 4.00 | 7.07 | 7.02 | 3.4 | 2.65 | 102 (≈ 184 µM) | 5.95
CCN(c1cc(C(=O)Nc2ncc(CC(=O)O)s2)cc2c1OCO2)S(=O)(=O)c1cc(Cl)ccc1OC | < 4.00 | < 4.00 | 7.00 | 7.05 | 3.22 | 2.74 | 144 (≈ 260 µM) | 6.21
CCCN(c1cc(C(=O)Nc2nc(CC(=O)O)cs2)cc2c1OCO2)S(=O)(=O)c1cc(Cl)ccc1OC | < 4.00 | < 4.00 | 6.88 | 6.91 | 3.58 | 2.72 | 108 (≈ 190 µM) | 6.21
CCCN(c1cc(C(=O)Nc2ccc(CC(=O)O)cc2)cc2c1OCO2)S(=O)(=O)c1cc(Cl)ccc1OC | < 4.00 | < 4.00 | 6.74 | 6.72 | 3.45 | 0.87 | 517 (≈ 922 µM) | 6.02
CCCN(c1cc(C(=O)Nc2ncc(CC(=O)O)s2)cc2c1OCO2)S(=O)(=O)c1cc(Cl)ccc1OC | < 4.00 | < 4.00 | 7.21 | 6.74 | 3.56 | 2.74 | 108 (≈ 190 µM) | 6.15
COc1ccc(Cl)cc1S(=O)(=O)N(c1cc(C(=O)Nc2ncc(CC(=O)O)s2)cc2c1OCO2)C(C)C | 4.42 | < 4.00 | 6.43 | 6.79 | 3.53 | 2.84 | 109 (≈ 192 µM) | 6.09
